As usually defined, the AC50 is the concentration at which the activity in the assay is half-maximal.

This passage reports AC50 results from PubChem BioAssay AID463203 (Broad Institute, 2010).

Activity calls are given as the source filed them.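 The calls were made as follows: active = more than half of replicate measurements showing over 20% loss of kinase signal relative to plate controls; inconclusive = some but at most half of replicates over 20% loss; inactive = no replicate over 20% signal loss.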

The test deals with Glycogen synthase kinase-3 alpha (Homo sapiens) (UniProt P49840). The test is described as follows: concentration-response blocking of human GSK3A – biochemical, luminescence, cell-free homogeneous, retest, dose response (AID 463203). Particulars: GSK-3 alpha enzyme, ADP-Glo luminescence, 60 min. In general terms: In ADP-Glo the light output rises with the ADP produced.
Chain of Glycogen synthase kinase-3 alpha (Homo sapiens) (P49840 whole entry, looked up): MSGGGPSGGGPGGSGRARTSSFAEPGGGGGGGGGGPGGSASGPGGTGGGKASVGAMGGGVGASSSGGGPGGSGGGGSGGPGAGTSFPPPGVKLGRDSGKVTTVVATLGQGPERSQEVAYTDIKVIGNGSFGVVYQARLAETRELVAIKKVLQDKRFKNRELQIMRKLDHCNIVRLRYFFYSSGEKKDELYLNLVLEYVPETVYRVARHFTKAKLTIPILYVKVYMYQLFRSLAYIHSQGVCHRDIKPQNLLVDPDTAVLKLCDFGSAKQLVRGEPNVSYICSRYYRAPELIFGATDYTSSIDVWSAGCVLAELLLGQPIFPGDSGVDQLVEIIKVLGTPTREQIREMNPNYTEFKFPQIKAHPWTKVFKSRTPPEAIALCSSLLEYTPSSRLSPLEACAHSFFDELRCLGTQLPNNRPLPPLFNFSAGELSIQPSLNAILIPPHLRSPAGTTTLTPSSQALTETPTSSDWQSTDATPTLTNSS

As to `Cc1cc(C)nc(NC(=O)c2ccc(Br)s2)n1`, the AC50 is > 30 µM (inactive).

As for `CN(Cc1ccccc1)c1ncnc(N)c1[N+](=O)[O-]`, the AC50 was 18.8 µM.

With `CCOC(=O)c1cnn(C)c1NC(=O)c1ccc(Cl)cc1Cl`, the AC50 is > 30 µM (inactive).

For the compound `Cc1ccc(NC(=S)Nc2ccc3cn[nH]c3c2)c(C)c1`, the AC50 is > 30 µM (inactive).

On to `Clc1ccc(C2=Nn3c(nnc3-c3cccs3)SC2)cc1`, for which the AC50 was > 30 µM (inactive).

`COC(=O)C1CSc2[nH]c(=O)sc2C1c1ccc(O)c(OC)c1` (stereo not drawn): the AC50 is > 30 µM (inactive).

With `c1cncc(-c2nc3ccccc3[nH]2)c1`, the AC50 was > 30 µM (inactive).

For `Cn1c(=O)c2[nH]c(CNc3ccc(C(=O)O)cc3)nc2n(C)c1=O`, the AC50 is > 30 µM (inactive).

Regarding `COc1cc(C2c3sc(=O)[nH]c3SC3C(=O)N(c4ccc(Br)cc4)C(=O)C32)ccc1O` (stereo not drawn), the AC50 is > 30 µM (inactive).

With `Cc1ccc(NC(=O)CSCc2ccco2)cc1`, the AC50 was > 30 µM (inactive).

Take `Cc1cnc(NC(=O)C2CC(=O)N(c3ccc4c(c3)OCCO4)C2)s1` (stereo not drawn): the AC50 is > 30 µM (inactive).

As to `CCCC(=O)NNC(=O)c1c(O)c2ccccc2[nH]c1=O`, the AC50 was > 30 µM (inactive).

`Cc1cc(C)nc(NC(=O)/C=C/c2cccs2)c1`: the AC50 is > 30 µM (inactive).

Take `Cc1c(O)ccc2c3c(c(=O)oc12)CCCC3`: the AC50 is 6.63 µM.

As to `CC1(C)Cc2c(sc3c2C2=NCCN2C=N3)CS1`, the AC50 was > 30 µM (inactive).

Take `CC(=O)N(C)c1ccc(N=Cc2cc3c(cc2[N+](=O)[O-])OCO3)cc1`: the AC50 was 21.2 µM.

Turning to `CCCCSc1nc(C)[nH]c1[N+](=O)[O-]`, the AC50 was > 30 µM (inactive).

Consider `C=CCn1cnc2c(c1=O)c1nc3ccccc3nc1n2/N=C/c1cc(OC)c(OC)c(OC)c1`, for which the AC50 is > 30 µM (inactive).

Turning to `O=c1c2ccccc2oc2ccc(NCCCn3ccnc3)cc12`, the AC50 was > 30 µM (inactive).

For `COc1ccc2nc(NC(=O)CN3CCN(C)CC3)sc2c1`, the AC50 was > 30 µM (inactive).

Consider `CCOc1cc(-c2nc3c(C)cccn3c2NCC2CCCO2)ccc1O` (stereo not drawn), for which the AC50 was > 30 µM (inactive).

With `CN(C)c1nc2sc3c(c2c(=O)n1C)CC(C)(C)OC3`, the AC50 is > 30 µM (inactive).

On to `COCc1nnc(NC(=O)CCN2C(=O)c3ccccc3C2=O)s1`, for which the AC50 was > 30 µM (inactive).

With `C/C(=N\NC(=O)c1nnn(-c2nonc2N)c1-c1cccs1)c1ccc(O)cc1`, the AC50 is 1.17 µM.

Regarding `CCN(C(=O)CN1CCCCCC1)c1c(N)n(Cc2ccccc2)c(=O)[nH]c1=O`, the AC50 was > 30 µM (inactive).

For the compound `Cc1cc(=O)[nH]c2c(C)c(Cl)ccc12`, the AC50 was > 30 µM (inactive).

For the compound `COC(=O)c1sccc1NC(=O)c1ccccc1`, the AC50 is > 30 µM (inactive).

In the case of `c1ccc2c(c1)ccc1nnc(-c3ccc4c(c3)OCO4)n12`, the AC50 is > 30 µM (inactive).

Turning to `CCNc1ccc2noc3c2c1C(=O)c1ccccc1-3`, the half-maximal activity concentration (AC50) is 10.8 µM.

`Cc1ccc(-c2nc3ncccn3c2Nc2ccc3c(c2)OCCO3)cc1`: the AC50 was > 30 µM (inactive).

With `Cc1ccc(C2C(C#N)=C(N)Oc3n[nH]c(-c4cccnc4)c32)o1` (stereo not drawn), the AC50 was > 30 µM (inactive).

With `Cc1ccc2nc(-c3cccc(N)c3)[nH]c2c1`, the AC50 was > 30 µM (inactive).

`COCCNC(=O)Cn1cnc([N+](=O)[O-])n1`: the AC50 was > 30 µM (inactive).

As for `O=C(NC(=S)NCC1COc2ccccc2O1)c1ccccc1` (stereo not drawn), the AC50 is > 30 µM (inactive).

`COc1cc(C2CC(=O)c3c([nH]c(C(=O)OCCOC(C)C)c3C)C2)cc(OC)c1OC` (stereo not drawn): the AC50 is > 30 µM (inactive).

On to `COC(=O)CNc1nc(Cl)nc(NC2CCCCC2)n1`, for which the AC50 is > 30 µM (inactive).

Regarding `CC(C)c1c(C(=O)N/N=C/c2ccsc2)nnn1-c1nonc1N`, the AC50 is > 30 µM (inactive).

Take `COc1ccc(-c2cc(C(=O)N3CCN(c4ccccc4)CC3)no2)cc1OC`: the AC50 is > 30 µM (inactive).

`CCN(C(=O)CN1CCCCC1)c1c(N)n(Cc2ccccc2)c(=O)[nH]c1=O`: the AC50 is > 30 µM (inactive).

As for `CCOC(=O)c1cnc2c(C(F)(F)F)cccc2c1N1CCN(C)CC1`, the AC50 is > 30 µM (inactive).

As to `COc1ccccc1C(=O)Nc1nc(C)cc(C)n1`, the AC50 was > 30 µM (inactive).

Turning to `CCOC(=O)c1nnn(-c2nonc2N)c1-c1ccccc1Cl`, the AC50 was 8.37 µM.

As to `N#Cc1c(Nc2ccccc2)c(/C=N/NCCO)c[nH]c1=O`, the AC50 is > 30 µM (inactive).

`CC(C)OC(=O)CSc1nc(N)c(C#N)c(-c2ccco2)c1C#N`: the AC50 was > 30 µM (inactive).

Regarding `CN(C)Cc1c(C(=O)N/N=C/C=C/c2ccccc2)nnn1-c1nonc1N`, the AC50 was 30 µM.

Turning to `COCCCNC(=O)C(=O)NC1CCCCCC1`, the AC50 was > 30 µM (inactive).

On to `Cc1c(C(=O)NCCc2ccccc2)oc2ccccc12`, for which the AC50 is > 30 µM (inactive).

For the compound `Cc1ccccc1CNC(=O)c1cc(COc2ccc(F)cc2F)on1`, the AC50 is > 30 µM (inactive).

With `CN(C)C=NC(=O)/C(C#N)=C/c1ccccc1`, the AC50 is > 30 µM (inactive).

Consider `COC(=O)c1c(NC(=O)COC(=O)c2ccccn2)sc(C)c1C`, for which the AC50 is > 30 µM (inactive).

Consider `CCOc1cc(/C=C2\N=C3CCCCCN3C2=O)ccc1O`, for which the AC50 is 19.3 µM.

`CC1(C)CC(=O)C(C(c2cccnc2)C2C(=O)CC(C)(C)CC2=O)C(=O)C1`: the AC50 is > 30 µM (inactive).

`O=c1[nH]cccc1-c1nc2ccccc2[nH]1`: the AC50 was 4.92 µM.

Regarding `C[C@@H]1O[C@@H](O[C@H]2[C@H](O)[C@@H](O)[C@H](Oc3c(-c4ccc(O)c(O)c4)oc4cc(O)cc(O)c4c3=O)O[C@@H]2CO)[C@H](O)[C@H](O)[C@H]1O`, the AC50 is > 30 µM (inactive).

Regarding `COc1ccc(-n2c(C)c([N+](=O)[O-])c3ccc(O)c(CN(C)C)c32)cc1`, the AC50 is 5.94 µM.

With `Cc1cc(NC(=O)c2cccc(S(=O)(=O)N3CC(c4ccccc4)CC3=O)c2)no1` (stereo not drawn), the AC50 was > 30 µM (inactive).

On to `CCCCn1c(O)c(C=NCCCn2ccnc2)c(=O)[nH]c1=O`, for which the AC50 was 5.81 µM.

In the case of `Cc1cccc(C)c1OC(=O)Cc1ccccc1[N+](=O)[O-]`, the AC50 is > 30 µM (inactive).

In the case of `NC1=NC(=O)/C(=C\c2ccc(-c3ccc(Cl)cc3)o2)S1`, the AC50 was 1.4 µM.

With `Cc1ccc(NC(=O)CSc2nnc(-c3ccncc3)s2)cc1`, the AC50 is > 30 µM (inactive).

For `CCOC(=O)c1nnn(-c2nonc2N)c1COc1ccc(F)cc1`, the AC50 was 4.9 µM.

`COc1ccc(COC(=O)C2=C(C)NC(=O)NC2c2ccc(OC)c(OC)c2)cc1` (stereo not drawn): the AC50 is > 30 µM (inactive).

As for `CCOc1ccc2[nH]cc(S(=O)(=O)c3ccc(C)cc3)c(=O)c2c1`, the AC50 was > 30 µM (inactive).

Regarding `CC(=O)Nc1ccc(Nc2ncnc(N)c2[N+](=O)[O-])cc1`, the AC50 is > 30 µM (inactive).

Regarding `NC(=O)c1cc([N+](=O)[O-])ccc1NCc1ccc(O)cc1`, the AC50 was 4.32 µM.

Consider `NC(=O)c1ccc(N=C2C(=O)Nc3ccc([N+](=O)[O-])cc32)cc1`, for which the AC50 was > 30 µM (inactive).

Take `CC(=O)Nc1n[nH]c(-c2ccc(C)cc2)c1C`: the AC50 was > 30 µM (inactive).

Consider `Cc1ccc(C(=O)c2cc(C)sc2NC(=O)CN2CCN(C(=O)c3ccco3)CC2)cc1`, for which the AC50 was > 30 µM (inactive).

Regarding `Cc1ccc(CSCCNC(=O)c2ccccc2)cc1`, the AC50 was > 30 µM (inactive).

`OCc1cn(-c2ccccc2)nn1`: the AC50 was > 30 µM (inactive).

In the case of `COc1ccc(N=c2oc3c(OC)cccc3cc2C(=O)NCc2ccco2)cc1OC`, the AC50 is > 30 µM (inactive).

In the case of `O=c1c(O)cccc2cc(O)c(O)c(O)c12`, the AC50 is 21.1 µM.

On to `COc1ccc(-c2noc(CSc3nc(N)cc(=O)[nH]3)n2)cc1`, for which the AC50 was > 30 µM (inactive).

As for `CCc1ccc(NC(=S)NC(=O)CC(C)C)cc1`, the AC50 was > 30 µM (inactive).

Regarding `COc1ccccc1Nc1nc2c(s1)CCC2`, the AC50 is > 30 µM (inactive).

In the case of `CCN(CC)CCNC(=O)c1ccc(NC(=O)C2CCN(c3ncnc4sc(C)c(C)c34)CC2)cc1`, the AC50 is 22.8 µM.

On to `O=[N+]([O-])c1ccc(COc2ccccc2/C=N/O)cc1`, for which the AC50 was > 30 µM (inactive).

For the compound `O=S(=O)(c1cccs1)N1CCN(c2ccnc3cc(Cl)ccc23)CC1`, the AC50 is > 30 µM (inactive).

On to `CCOC(=O)CCc1c(C)c2ccc(O)cc2oc1=O`, for which the AC50 is > 30 µM (inactive).

Consider `CC(C)NC(=O)Nc1ccc(Br)cc1Cl`, for which the AC50 is > 30 µM (inactive).

Consider `Cc1ccc(S(=O)(=O)CCSc2n[nH]c(=O)n2-c2ccccc2)cc1`, for which the AC50 is 11.8 µM.

With `Clc1ccc(/C=N/Nc2ncnc3ccccc23)cc1Cl`, the AC50 was > 30 µM (inactive).

For the compound `COc1c(OC)c(O)c2c(=O)c(O)c(-c3ccccc3)oc2c1OC`, the AC50 is > 30 µM (inactive).

Consider `CN(C)S(=O)(=O)c1cccc(NC(=S)NN=C(Cc2ccccc2)Cc2ccccc2)c1`, for which the AC50 was > 30 µM (inactive).

In the case of `CN(C)/C=C/c1[nH]c(=O)[nH]c(=O)c1[N+](=O)[O-]`, the AC50 was > 30 µM (inactive).

Take `O=C(Nc1ccccc1-c1nnc(SCc2ccccc2Cl)o1)c1ccccc1`: the AC50 was > 30 µM (inactive).

Consider `COCC(=O)Nc1ccc([N+](=O)[O-])cc1OC`, for which the AC50 was > 30 µM (inactive).

In the case of `CC1=NN(c2nc(-c3ccc(Cl)cc3)cs2)C(=O)C1`, the AC50 is > 30 µM (inactive).

Consider `CC(C)NC(=O)Nc1n[nH]c(Nc2ccc(Cl)cc2)n1`, for which the AC50 was 4.87 µM.

For `Nc1c(C(=O)NCc2ccco2)c2nc3ccccc3nc2n1CCN1CCOCC1`, the AC50 is > 30 µM (inactive).

Turning to `Oc1cc(O)cc(-c2cc3ccc(O)cc3o2)c1`, the AC50 was > 30 µM (inactive).

For `COc1cc(/C=C2/S/C(=N/S(=O)(=O)Cc3ccccc3)NC2=O)c([N+](=O)[O-])cc1OC`, the AC50 is > 30 µM (inactive).

Consider `O=C(Nc1c(C(=O)O)oc2ccc(Br)cc12)c1ccccc1`, for which the AC50 is 3.44 µM.
